Test results taken from ChEMBL document CHEMBL1153239, “1-(3-Aryloxyaryl)benzimidazole sulfones are liver X receptor agonists” (Bioorg Med Chem Lett, 2010).

Test: AUC (0 to last) in C57 mouse at 10 mg/kg, po
Type: ADME, organism-based
Parameters: time 0 - last, dose 10 mg/kg, route oral
Conditions: plasma

| AUC(0-t) [ng·h/mL] | Structure (SMILES) |
| --- | --- |
| 12900 | Cc1nc2c(C(F)(F)F)cccc2n1-c1cccc(Oc2cccc(S(C)(=O)=O)c2)c1 |
| 1290 | Cc1nc2c(C(F)(F)F)cccc2n1-c1cccc(Oc2cccc(S(=O)(=O)C(C)C)c2)c1 |
| 1780 | CCS(=O)(=O)c1cccc(Oc2cccc(-n3c(C)nc4c(Cl)cccc43)c2)c1 |

Continued, compound first:

| Structure (SMILES) | AUC(0-t) [ng·h/mL] |
| --- | --- |
| CS(=O)(=O)c1cccc(Oc2cccc(-n3c(C(F)(F)F)nc4c(C(F)(F)F)cccc43)c2)c1 | 14300 |
| CS(=O)(=O)c1cccc(Oc2cccc(-n3cnc4c(C(F)(F)F)cccc43)c2)c1 | 12100 |
| CCc1nc2c(C(F)(F)F)cccc2n1-c1cccc(Oc2cccc(S(C)(=O)=O)c2)c1 | 1780 |
| CCS(=O)(=O)c1cccc(Oc2cccc(-n3c(C)nc4c(C(F)(F)F)cccc43)c2)c1 | 2940 |
| Cc1nc2c(Cl)cccc2n1-c1cccc(Oc2cccc(S(C)(=O)=O)c2)c1 | 1500 |
